Assays:
[1] = Solubility of sunb-malate in PBS; assay type: physicochemical
corneal NV = experiment: Treatment of suture-induced corneal NV, quantitative analysis of NV area and length; assay type: in vivo, Sprague Dawley rats; conditions: single SC injection 30 μL, 5 mg sunb-malate/mL; POD 5, 7, 14
Excerpt: Corneal NV was induced by intrastromal suturing. […] The distance between the stitch and the limbus was approximately 2 mm while there was a distance of 1 mm between the two stitches. […] Erythromycin antibiotic ointment was applied to prevent potential infection and corneal dry-up. The rats were followed for 2 weeks. The corneas of all rats were examined by slit-lamp biomicroscope (SL120; Carl Zeiss AG, Oberkochen, Germany) and corneal photographs were taken with a digital camera. The area and length of vascularized cornea were quantified with Photoshop CS3.0. The arc was drawn along the limbus, the vascularized area pixel measured and the corneal NV area was calculated using the following equation: The vascularized area was evenly divided into six sections. The distance between vessel tips and the limbus at the five intersection points of the arc was measured. The average of the five measured lengths was regarded as the corneal NV length.

[2] = Drug ocular retention in vivo after SC injection (autofluorescence imaging of eyeballs); design: species or system Sprague Dawley rats; conditions: rat eye
Experimental: At post injection (PI) day 0, 1, 3, 7, 14 and 28, the whole eyeballs (n=4) were harvested after the animals were sacrificed. […] The fluorescent images were analyzed using the Living Image 3.0 software (Caliper Lifesciences, Inc.), and the retention of sunitinib was quantified by comparing to the fluorescence counts of the eye immediately undertaken SC injection. Rat eyes without SC injection were used as the baseline.

CCN(CC)CCNC(=O)c1c(C)[nH]c(/C=C2\C(=O)Nc3ccc(F)cc32)c1C.O=C(O)C[C@H](O)C(=O)O [Sunb-malate free drug, Sunitinib malate]
concentration dissolved in PBS [1]: at least 25 mg/mL | inhibition of corneal NV (length and area) (corneal NV): negligible effect | time to clearance after SC injection ([2]; 30 μL of 5 mg/mL): ≤ 1 days | time to almost no drug retention in the eye ([2]; SC injection): ≤ 24 h
